Source: patent US9649300B2, “Inhibition of WNT, TGF beta and Hippo signaling pathways to treat cancer, organ fibrosis and metabolic disorders” (University of Pittsburgh—of the Commonwealth System of …, priority 2013, dated 2017)

Tests used:
ACC = assay: Phosphorylation of downstream AMPK target ACC; assay type: cell-based; conditions: FIG. 10E
Experimental: (§1) FIGS. 10A-10F. FIGS. 10A and 10B. Dose and time dependent effects of C19 on phosphorylation of AMPK. In FIG. 10B, C19 was used at 5 μM. FIG. 10C. Effect of AICAR on phosphorylation of AMPK. FIG. 10D. Confirmation in different cell lines. FIGS. 10E and 10F. Effect of C19 on phosphorylation of downstream AMPK targets ACC and UIK1.
(§2) Investigation of the mechanism by which C19 exert its activity led to the discovery that, in addition to its effect on MST/Lats, this compound acts as a potent activator of the metabolic enzyme and tumor suppressor kinase AMPK (FIG. 10).

AMPK = assay: Phosphorylation (activation) of AMPK; assay type: cell-based; conditions: for activation of AMPK: FIG. 8
Experimental: as §1, §2

Hippo pathway = assay: TEAD luciferase reporter (8xGT-II) as readout for Hippo signaling; assay type: cell-based; conditions: for inhibition of Hippo signaling: FIG. 8; for activity of Hippo reporter: FIG. 5
Experimental: (§3) FIGS. 1A-1C. Screening for small molecules inhibitors of the Hippo pathway. FIG. 1A. Hippo associated luciferase reporter (8xGT-II) was used to screen a series of 30 thiadiazole derivatives. Cells transfected with the construct were incubated in the absence (c) or presence of the compounds at 10 μM for 24 hours. Luciferase activity expressed in arbitrary units (AU) was measured in protein extracts. Data represent average for three replicates ±SE. FIG. 1B. Structure of S21 compound. FIG. 1C. Activity of S21 on Hippo versus CMV-Luciferase reporter measured as described above.
(§4) FIG. 2. S21 as a common inhibitor of Wnt, TGF beta and Hippo. 293 cells were transfected with luciferase reporters corresponding to each pathway and then exposed to S21, the Wnt inhibitor Pyrvinium (PYR) or the TGF beta inhibitor SB-431 at the indicated concentrations. After 24 hours, the cells were lysed and luciferase activity measured. Data represent average of three replicates ±SE.
(§5) FIG. 5. Effect of S21 versus Pirfenidone on activity of Wnt, TGF beta and Hippo reporters. 293 cells were transfected with luciferase reporters corresponding to the three pathways and then incubated with the indicated concentration of S21 or Pirfenidone for 24 hours. Luciferase activity was measured in the protein extract. Each point represents average of three determinations ±SE.
(§6) A TEAD luciferase reporter system was used as a readout for Hippo signaling, to screen a series of thiadiazole derivatives synthesized in our laboratory. For this, 293 cells transfected with the reporter construct were incubated in the absence or the presence of individual compounds at 10 μM concentration each for 24 hours. Proteins were then extracted and used as a source of enzyme of luciferase activity.

Ulk1 = assay: Phosphorylation of downstream AMPK target Ulk1; assay type: cell-based; conditions: FIG. 10F
Experimental: as §1, §2

melanoma cells WM266 [1] = assay: Tumor xenograft mouse model; assay type: in vivo
Experimental: FIGS. 9A-9B. Effect of C19 (mg/Kg) on tumor growth (FIG. 9A) and body weight (FIG. 9B). Data represents 7 replicates ±SE. *p<0.05., **p<0.01.
To obtain information regarding the efficacy of C19 in a tumor xenograft mouse model, nude mice (strain CD1) were injected subcutaneously with melanoma cells WM266. After tumors became palpable (˜5 mm in diameter), the mice were randomized into control and treatment groups (n=7). The control group was injected intraperitoneally with the vehicle (DMSO 3% in 200 μl of DMEM) and the treatment groups were injected with increasing doses of C19 (in mg/Kg) dissolved in 200 μl of vehicle solution. The animals received 3 injections starting on day 15 and separated by three days. Tumor volumes and body weight were measured on a daily basis.

[2] = oral, eight-week-old male untrained mice; cited from earlier work
Wnt = Wnt luciferase reporter in 293 cells; assay type: cell-based; conditions: for activity of Wnt reporter: FIG. 5
Experimental: as §4, §5
(§7) By comparison, none of Wnt or TGF beta inhibitors had affected the Hippo pathway reporter.

TGF beta = TGF beta luciferase reporter in 293 cells; assay type: cell-based; conditions: for activity of TGF beta reporter: FIG. 5
Experimental: as §4, §5, §7

[3] = system: luciferase driven by the CMV promoter; assay: CMV-Luciferase reporter (specificity control); assay type: cell-based
Experimental: as §3, §6

[4] = system: three melanoma and one colon cancer cell lines; assay: Cell proliferation after 5 days of incubation; assay type: cell-based
Experimental: (§8) FIGS. 4A-4D. Inhibition of EMT, cell migration, proliferation and resistance to therapy by S21. FIG. 4A. Western blots showing inhibition of various EMT genes in melanoma cells WM266 exposed to the indicated concentrations of S21 for 24 hours. FIG. 4B. Cell monolayer scratch assay depicting inhibition of cell migration by S21. FIG. 4C. Effect of S21 on cell proliferation measured after 5 days of incubation. FIG. 4D. Cell response to doxorubicin was measured in the presence of and absence of S21. Data in panels C and D represent average of three determinations ±SE.
(§9) Future studies will be needed to elucidate the underlying mechanism.

Lats1 = target: T1, Lats1 (Homo sapiens, UniProt O95835); assay: Western blot, phosphorylation of core kinase Lats1; assay type: cell-based; conditions: dose-dependent, FIG. 3A
T1 construct: endogenous in cells
T1 sequence (O95835 1-1130): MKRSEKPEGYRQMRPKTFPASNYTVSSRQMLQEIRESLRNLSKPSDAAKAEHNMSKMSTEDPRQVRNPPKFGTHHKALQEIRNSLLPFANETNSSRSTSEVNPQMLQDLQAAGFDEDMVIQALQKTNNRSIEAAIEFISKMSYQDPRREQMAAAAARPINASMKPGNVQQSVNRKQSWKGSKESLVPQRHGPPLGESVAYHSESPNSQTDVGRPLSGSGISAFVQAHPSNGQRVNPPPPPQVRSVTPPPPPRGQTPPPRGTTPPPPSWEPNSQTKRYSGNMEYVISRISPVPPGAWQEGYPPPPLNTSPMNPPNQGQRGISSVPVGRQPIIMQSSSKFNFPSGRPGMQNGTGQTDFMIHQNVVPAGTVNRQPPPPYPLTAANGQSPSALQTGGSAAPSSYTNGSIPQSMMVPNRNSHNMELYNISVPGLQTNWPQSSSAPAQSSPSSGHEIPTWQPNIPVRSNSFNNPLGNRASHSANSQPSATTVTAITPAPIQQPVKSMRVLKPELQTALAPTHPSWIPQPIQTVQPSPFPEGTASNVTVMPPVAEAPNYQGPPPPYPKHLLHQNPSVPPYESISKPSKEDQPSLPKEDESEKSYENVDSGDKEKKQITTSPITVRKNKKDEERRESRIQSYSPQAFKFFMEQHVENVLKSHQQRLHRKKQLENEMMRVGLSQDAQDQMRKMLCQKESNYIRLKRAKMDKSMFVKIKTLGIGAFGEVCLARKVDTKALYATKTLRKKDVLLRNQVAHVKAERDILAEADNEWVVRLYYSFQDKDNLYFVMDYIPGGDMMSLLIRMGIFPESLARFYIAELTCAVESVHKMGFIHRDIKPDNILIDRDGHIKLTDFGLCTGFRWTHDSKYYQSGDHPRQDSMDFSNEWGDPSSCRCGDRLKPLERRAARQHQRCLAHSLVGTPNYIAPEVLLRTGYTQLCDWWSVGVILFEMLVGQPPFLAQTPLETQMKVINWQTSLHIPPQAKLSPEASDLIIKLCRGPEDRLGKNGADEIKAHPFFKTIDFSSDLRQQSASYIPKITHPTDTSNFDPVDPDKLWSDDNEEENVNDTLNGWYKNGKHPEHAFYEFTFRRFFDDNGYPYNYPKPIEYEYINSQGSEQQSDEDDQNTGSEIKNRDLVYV
Experimental: (§10) FIGS. 3A-3B. Effect of S21 on key elements of the Hippo pathway. Western blot analysis was carried out to determine the effect of S21 on expression and phosphorylation of MST/Lats (FIG. 3A) and nucleocytoplasmic localization of YAP and beta catenin (FIG. 3B).
(§11) To gain insights into the mechanism(s) by which S21 inhibits the Hippo pathway, its effect on activation of the core kinases MST1 and Lats1 was analyzed.

cell migration = assay: Cell monolayer scratch assay; assay type: cell-based; conditions: FIG. 4B
Experimental: as §8, §9

beta catenin = assay: Western blot, nucleocytoplasmic localization of beta catenin; assay type: cell-based; conditions: FIG. 3B
Experimental: as §10, §11

fibroblasts = assay: Expression of fibrotic markers (QPCR, Western blot); assay type: cell-based; conditions: RNA and protein level
Source text: FIGS. 6A-6B. S21 inhibits expression of pro-fibrotic and pro-EMT genes. FIG. 6A. QPCR analysis depicting expression levels of pro-EMT ad fibrosis genes in the absence and the presence of S21. FIG. 6B. Western blot analysis showing the effect of S21 on expression of fibronectin, collagen and vimentin. Beta catenin was used as a loading control.

melanoma cells WM266 [5] = assay: Western blots of EMT genes and downstream target genes; assay type: cell-based; conditions: WM266, 24 hours
Experimental: as §8, §9

YAP = assay: Western blot, nucleocytoplasmic localization of YAP; assay type: cell-based; conditions: FIG. 3B
Experimental: as §10, §11

MST1 = target: T2, MST1 (Homo sapiens, UniProt Q13043); assay: Western blot, phosphorylation of core kinase MST1; assay type: cell-based; conditions: dose-dependent, FIG. 3A
T2 construct: endogenous in cells
T2 sequence (Q13043 1-487): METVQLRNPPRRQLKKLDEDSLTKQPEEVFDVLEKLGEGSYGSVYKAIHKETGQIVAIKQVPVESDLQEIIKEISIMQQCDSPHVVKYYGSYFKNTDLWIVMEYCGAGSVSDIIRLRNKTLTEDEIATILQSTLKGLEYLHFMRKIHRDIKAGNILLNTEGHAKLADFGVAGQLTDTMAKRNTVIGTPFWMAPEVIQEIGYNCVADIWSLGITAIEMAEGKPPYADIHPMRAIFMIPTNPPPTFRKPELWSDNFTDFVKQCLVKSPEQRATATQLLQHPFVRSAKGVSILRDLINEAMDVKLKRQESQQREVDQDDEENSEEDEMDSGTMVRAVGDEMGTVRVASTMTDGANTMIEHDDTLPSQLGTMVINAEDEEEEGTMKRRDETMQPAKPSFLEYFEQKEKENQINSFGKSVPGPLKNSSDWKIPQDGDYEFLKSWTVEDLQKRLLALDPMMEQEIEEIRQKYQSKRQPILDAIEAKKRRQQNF
Experimental: as §10, §11

melanoma cell = assay: Cell response to doxorubicin with and without S21; assay type: cell-based; conditions: FIG. 4D
Experimental: as §8, §9

[6] = tested for up to 100 μM, data not shown

OCCCCOc1nsnc1-c1ccc(Cl)c(Cl)c1 [C19, 4-((4-(3,4-dichlorophenyl)-1,2,5-thiadiazol-3-yl)oxy)butan-1-ol]
phosphorylation of ACC (ACC): induced phosphorylation | activation of AMPK (AMPK): activation | potency on AMPK relative to AICAR (AMPK; FIG. 10C): at least 10 times | effect on AMPK in different cell lines (AMPK; FIG. 10D): validated | phosphorylation (activation) of AMPK (AMPK; concentration and time dependent, FIGS. 10A and 10B): induced phosphorylation | inhibition of Hippo signaling (Hippo pathway): inhibition | phosphorylation of Ulk1 (Ulk1): induced phosphorylation | inhibition of tumor growth (melanoma cells WM266 [1]; 20 mg/Kg intraperitoneal, 3 injections from day 15): about 90% | tumor growth (melanoma cells WM266 [1]; intraperitoneal, increasing doses, 3 injections from day 15): suppresses tumor growth in a dose dependent manner | signs of toxicity or death (melanoma cells WM266 [1]; throughout the experiment): No signs of toxicity or death | body weight compared to controls (melanoma cells WM266 [1]; treatment groups, FIG. 9B): did not change significantly

NC(=O)c1ncn([C@@H]2O[C@H](CO)[C@@H](O)[C@H]2O)c1N [AICAR, 5-aminoimidazole-4-carboxamide 1-D-ribonucleoside]
increase in endurance without exercise [2]: 44%

Cc1ccc(=O)n(-c2ccccc2)c1 [Pirfenidone, reference compound]
activity of Hippo reporter (Hippo pathway; 293 cells, 24 hours): without effect | inhibition of Hippo reporter (Hippo pathway; [6]): no inhibition was detected | activity of Wnt reporter (Wnt; 293 cells, 24 hours): without effect | inhibition of Wnt reporter (Wnt; [6]): no inhibition was detected | activity of TGF beta reporter (TGF beta; 293 cells, 24 hours): without effect | inhibition of TGF beta reporter (TGF beta; [6]): no inhibition was detected

OCCCCOc1nsnc1-c1ccc(Cl)cc1 [S21]
inhibition of luciferase driven by the CMV promoter [3]: did not inhibit | response of metastatic WM266 versus non-metastatic WM115 ([4]; melanoma cell lines): responded better | anti-proliferative action ([4]; three melanoma and one colon cancer cell lines): anti-proliferative action | activation of AMPK (AMPK): activation | phosphorylation of Lats1 (Lats1): induced phosphorylation | inhibition of TEAD luciferase reporter activity (Hippo signaling) (Hippo pathway; 293 cells, 10 μM, 24 hours): strongest inhibition | activity of Hippo reporter (Hippo pathway; 293 cells, 24 hours): dose dependent inhibition | inhibition of Hippo signaling (Hippo pathway): inhibition | cell migration (cell migration): strongly inhibited | nuclear and cytoplasmic levels of beta catenin (beta catenin): reduced nuclear localization and enhanced cytoplasmic levels | expression of Collagen (fibroblasts): dose dependent decrease | expression of Finbronectin (fibroblasts): dose dependent decrease | inhibition of Wnt signaling reporter (Wnt; 293 cells, 24 hours, FIG. 2): remarkably inhibited | activity of Wnt reporter (Wnt; 293 cells, 24 hours): dose dependent inhibition | inhibition of TGF beta signaling reporter (TGF beta; 293 cells, 24 hours, FIG. 2): remarkably inhibited | activity of TGF beta reporter (TGF beta; 293 cells, 24 hours): dose dependent inhibition | expression of EMT-associated gene Zeb1 (melanoma cells WM266 [5]): strongly inhibits | level of Cyclin D (melanoma cells WM266 [5]): reduced | level of Hes (melanoma cells WM266 [5]): reduced | level of Myc (melanoma cells WM266 [5]): reduced | nuclear and cytoplasmic levels of YAP (YAP): reduced nuclear localization and enhanced cytoplasmic levels | phosphorylation of MST1 (MST1): induced phosphorylation | melanoma cell response to doxorubicin in presence of compound (melanoma cell): significantly enhanced
